Data published in patent US11021444B2, “Antiviral compounds” (priority 2013, dated 2021).
Where two headings read alike, the source gives them in different places.

Tests used:
[1] = test system: Respiratory Syncytial Virus (RSV) long strain; assay: microbe, parasite or virus in culture; format: cell-based; details: human respiratory syncytial virus, Tables A and B list compounds by EC50 band
Outline: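 HEp-2 cells infected with 100 TCID50 virus per well, compounds in duplicate, 9-point 1/3 dilutions from 100 μM or 1 μM, 1% DMSO. After 5 days at 37 °C, cell viability (CPE protection) read by CCK-8 absorbance at 450 nm, 630 nm background.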

[2] = Cytotoxicity Determination (CCK-8, without addition of virus); format: cell-based; details: human
Outline: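 HEp-2 cells were seeded at 1,500 cells/well one day before compound addition. Compounds were tested without virus in duplicate over 7 points from 100 μM in 1/2 steps, with 1% final DMSO, 5 days at 37 °C, 5% CO2. Viability was read by CCK-8 after 3-4 hours.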

[3] = molecular target: recombinant RSV complex (Human respiratory syncytial virus A, UniProt P28887); assay: RSV Polymerase Inhibition Assay; format: biochemical
Chain of recombinant RSV complex (P28887 whole entry): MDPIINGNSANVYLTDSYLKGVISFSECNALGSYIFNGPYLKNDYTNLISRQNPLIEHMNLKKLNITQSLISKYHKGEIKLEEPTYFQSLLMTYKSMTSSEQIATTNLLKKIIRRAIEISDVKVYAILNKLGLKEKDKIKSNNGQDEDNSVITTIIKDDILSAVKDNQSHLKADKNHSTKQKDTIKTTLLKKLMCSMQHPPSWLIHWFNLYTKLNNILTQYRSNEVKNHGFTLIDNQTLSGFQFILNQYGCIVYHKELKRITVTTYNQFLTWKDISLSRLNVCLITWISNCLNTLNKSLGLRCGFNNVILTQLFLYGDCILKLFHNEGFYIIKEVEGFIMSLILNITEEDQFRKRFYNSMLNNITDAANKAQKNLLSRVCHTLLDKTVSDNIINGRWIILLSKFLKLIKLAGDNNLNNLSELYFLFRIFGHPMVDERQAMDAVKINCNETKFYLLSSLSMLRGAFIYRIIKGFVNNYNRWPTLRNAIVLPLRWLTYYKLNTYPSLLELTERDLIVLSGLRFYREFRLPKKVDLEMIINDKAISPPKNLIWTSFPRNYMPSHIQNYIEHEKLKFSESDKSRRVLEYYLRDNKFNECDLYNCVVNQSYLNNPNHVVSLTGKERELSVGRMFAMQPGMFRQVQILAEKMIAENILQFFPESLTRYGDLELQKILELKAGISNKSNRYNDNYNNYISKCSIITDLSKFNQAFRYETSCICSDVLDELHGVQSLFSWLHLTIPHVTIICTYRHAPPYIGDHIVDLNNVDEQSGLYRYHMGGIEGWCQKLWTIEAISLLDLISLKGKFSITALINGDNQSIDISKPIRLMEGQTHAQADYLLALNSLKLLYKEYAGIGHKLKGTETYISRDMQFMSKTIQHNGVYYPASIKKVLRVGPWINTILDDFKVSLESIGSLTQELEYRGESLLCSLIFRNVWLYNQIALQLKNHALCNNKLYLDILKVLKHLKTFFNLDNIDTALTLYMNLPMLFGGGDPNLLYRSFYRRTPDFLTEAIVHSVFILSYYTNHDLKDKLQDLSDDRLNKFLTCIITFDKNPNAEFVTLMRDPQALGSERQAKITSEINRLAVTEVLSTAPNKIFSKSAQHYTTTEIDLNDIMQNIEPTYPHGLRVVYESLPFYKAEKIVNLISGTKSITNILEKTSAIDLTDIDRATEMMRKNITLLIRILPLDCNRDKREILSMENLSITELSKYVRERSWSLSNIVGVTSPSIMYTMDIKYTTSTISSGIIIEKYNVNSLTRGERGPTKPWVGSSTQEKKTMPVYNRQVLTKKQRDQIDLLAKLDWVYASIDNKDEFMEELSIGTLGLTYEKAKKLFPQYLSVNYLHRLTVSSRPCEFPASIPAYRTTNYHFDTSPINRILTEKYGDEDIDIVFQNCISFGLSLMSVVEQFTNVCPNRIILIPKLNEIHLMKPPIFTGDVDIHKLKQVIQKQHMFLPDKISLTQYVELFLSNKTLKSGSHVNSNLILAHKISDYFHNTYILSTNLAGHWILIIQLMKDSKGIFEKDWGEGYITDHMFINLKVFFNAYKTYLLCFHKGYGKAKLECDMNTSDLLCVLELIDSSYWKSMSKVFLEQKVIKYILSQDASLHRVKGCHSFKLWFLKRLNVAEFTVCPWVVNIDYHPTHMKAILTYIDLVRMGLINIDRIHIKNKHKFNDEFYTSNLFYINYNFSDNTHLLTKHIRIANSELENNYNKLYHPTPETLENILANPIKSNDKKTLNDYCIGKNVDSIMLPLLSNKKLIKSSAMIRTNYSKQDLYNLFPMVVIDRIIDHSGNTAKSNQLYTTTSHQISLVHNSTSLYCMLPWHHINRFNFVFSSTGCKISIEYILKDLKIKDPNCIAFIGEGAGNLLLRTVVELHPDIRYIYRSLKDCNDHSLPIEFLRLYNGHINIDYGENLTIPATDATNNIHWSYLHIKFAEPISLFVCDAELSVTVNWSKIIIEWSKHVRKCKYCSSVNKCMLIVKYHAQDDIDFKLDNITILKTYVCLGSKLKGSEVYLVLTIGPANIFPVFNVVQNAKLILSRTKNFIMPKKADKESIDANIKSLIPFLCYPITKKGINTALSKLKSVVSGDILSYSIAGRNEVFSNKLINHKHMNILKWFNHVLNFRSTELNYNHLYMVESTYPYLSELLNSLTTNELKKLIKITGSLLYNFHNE
Chain of recombinant RSV complex (P03421 whole entry, further chain): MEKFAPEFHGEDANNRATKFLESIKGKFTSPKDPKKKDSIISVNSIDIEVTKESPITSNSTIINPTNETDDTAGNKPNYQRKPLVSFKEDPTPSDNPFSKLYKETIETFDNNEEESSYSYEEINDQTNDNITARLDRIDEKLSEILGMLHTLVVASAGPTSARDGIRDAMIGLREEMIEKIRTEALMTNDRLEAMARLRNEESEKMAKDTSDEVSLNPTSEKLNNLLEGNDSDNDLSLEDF
Outline: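 10 nM recombinant RSV polymerase complex in Tris-HCl pH 7.5, 6 mM MgCl2 with RNA oligonucleotide template and radionucleotides, incubated 2 h at 30 °C with increasing inhibitor concentrations. Reaction stopped with EDTA; radiolabeled RNA product counted by scintillation.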

[4] = test system: RSV replicon; assay: microbe, parasite or virus in culture; format: cell-based; details: human respiratory syncytial virus, read-out: EC50, the concentration of the drug required for reducing RSV replicon RNA by 50%
[5] = HEp-2, 120 h, read-out: 50% effective concentration (EC50), HEp-2 cells infected with RSV long strain, 5 days, CCK-8 readout
[6] = 50% cytotoxicity concentration (CC50)
[7] = 120 h, read-out: 50% effective concentration (EC50), HEp-2 cells infected with RSV long strain, 5 days, CCK-8 readout

SMILES | EC50 [1, 5] | CC50 at 5 days [2, 6] | IC50 [3] | EC50 [4] | EC50 [1, 7] | CC50 at 5 days ([2]; no virus, 5 days, CCK-8 readout, Tables C and D list compounds by CC50 band)
COc1cc(C(=O)NCC(C)(O)c2cc(C(C)(C)N)cc(-c3ccc(F)cc3)n2)ccc1OC1CC1 (stereo not drawn) [Compound 574] | < 1000 nM | 10000 to 100000 nM | < 1000 nM | < 1000 nM | – | –
COc1cc(C(=O)NCC(C)(F)c2ccc(OC)c(-c3ccc(F)c(Cl)c3)n2)ccc1OCCF (stereo not drawn) [Compound 364] | < 1000 nM | 10000 to 100000 nM | < 1000 nM | < 1000 nM | – | –
COc1ccc(C(=O)NCC(O)(c2ccc(OC)c(-c3ccc(F)c(Cl)c3)n2)C2CC2)cc1OC (stereo not drawn) [Compound 359] | < 1000 nM | 10000 to 100000 nM | < 1000 nM | < 1000 nM | – | –
COc1cc(C(=O)NCC(O)(c2cc(C(C)(C)N)cc(-c3ccnc(Cl)c3)n2)C(F)(F)F)ccc1OC1CC1 (stereo not drawn) [Compound 558] | < 1000 nM | 10000 to 100000 nM | < 1000 nM | < 1000 nM | – | –
COc1cc(C(=O)NCC(O)(c2cc3c(c(-c4ccc(F)cc4)n2)OCC3(C)N)C(F)(F)F)ccc1OC[C@@H](C)O (stereo partly drawn) [Compound 556] | < 1000 nM | 10000 to 100000 nM | < 1000 nM | < 1000 nM | – | –
COc1cc(C(=O)NCC(O)(c2cc(C(C)(C)NC3COC3)cc(-c3ccc(F)c(Cl)c3)n2)C(F)(F)F)ccc1OC1CC1 (stereo not drawn) [Compound 577] | < 1000 nM | 10000 to 100000 nM | < 1000 nM | < 1000 nM | – | –
COc1cc(C(=O)NCC(O)(c2cc(C(C)(N)CF)cc(-c3ccc(F)cc3)n2)C(F)(F)F)ccc1OCC(N)=O (stereo not drawn) [Compound 615] | < 1000 nM | > 100000 nM | < 1000 nM | < 1000 nM | – | –
COc1cc(C(=O)NCC(O)(CNC2CC2)c2ccc(OC)c(-c3ccc(F)c(Cl)c3)n2)ccc1OCCO (stereo not drawn) [Compound 189] | < 1000 nM | > 100000 nM | < 1000 nM | < 1000 nM | – | –
COc1cc(C(=O)NCC(O)(c2ccc(OC)c(-c3ccc(F)c(Cl)c3)n2)C(C)(C)C)ccc1OCCF (stereo not drawn) [Compound 313] | 1000 to 50000 nM | 10000 to 100000 nM | < 10000 nM | 1000 to 50000 nM | – | –
COc1cc(C(=O)NCC(O)(c2cc(C(C)(C)N(C)C)cc(-c3ccc(F)c(Cl)c3)n2)C(F)(F)F)ccc1OC1CC1 (stereo not drawn) [Compound 400] | – | 10000 to 100000 nM | < 1000 nM | < 1000 nM | < 1000 nM | –
COc1cc(C(=O)NCC(C)(O)c2ccc(OC)c(-c3ccc(F)c(Cl)c3)n2)ccc1OCC(F)F (stereo not drawn) [Compound 372] | < 1000 nM | 10000 to 100000 nM | < 1000 nM | < 1000 nM | – | –
COc1cc(C(=O)NCC(O)(c2ccc(OC)c(-c3ccc(F)c(Cl)c3)n2)C(F)(F)F)ccc1OC1CC(F)C1 (stereo not drawn) [Compound 470] | – | > 100000 nM | < 1000 nM | < 1000 nM | < 1000 nM | –
COc1cc(C(=O)NCC(O)(c2cc3c(c(-c4ccc(F)c(Cl)c4)n2)OCC3N)C(F)(F)F)ccc1OC1CC1 (stereo not drawn) [Compound 525] | < 1000 nM | 10000 to 100000 nM | < 1000 nM | < 1000 nM | – | –
COc1cc(C(=O)NCC(O)(c2cc(C(C)(C)NC(C)=O)cc(-c3ccc(F)cc3)n2)C(F)(F)F)ccc1OCCO (stereo not drawn) [Compound 611] | < 1000 nM | > 100000 nM | < 1000 nM | < 1000 nM | – | –
COc1cc(C(=O)NC[C@@](O)(c2cc3c(c(-c4ccc(F)cc4)n2)OCC3(N)CO)C(F)(F)F)ccc1OC1CC1 (stereo partly drawn) [Compound 653] | < 1000 nM | > 100000 nM | < 1000 nM | < 1000 nM | – | –
COc1cc(C(=O)NCC(O)(c2cc3c(c(-c4ccc(F)cc4)n2)OCC3(C)N)C(F)(F)F)ccc1OCC(N)=O (stereo not drawn) [Compound 543] | < 1000 nM | 10000 to 100000 nM | < 1000 nM | < 1000 nM | – | –

SMILES | EC50 [1, 5] | CC50 at 5 days [2, 6] | IC50 [3] | EC50 [4] | EC50 [1, 7] | CC50 at 5 days ([2]; no virus, 5 days, CCK-8 readout, Tables C and D list compounds by CC50 band)
COc1cc(C(=O)NCC(O)(c2cc3c(c(-c4ccc(F)c(Cl)c4)n2)OCCC3(C)C)C2CC2)ccc1OCCO (stereo not drawn) [Compound 312] | < 1000 nM | 10000 to 100000 nM | < 1000 nM | < 1000 nM | – | –
COc1cc(C(=O)NCC(O)(c2cc(C(C)(N)C(N)=O)cc(-c3ccc(F)c(Cl)c3)n2)C(F)(F)F)ccc1OC1CC1 (stereo not drawn) [Compound 536] | < 1000 nM | 10000 to 100000 nM | < 1000 nM | < 1000 nM | – | –
COc1cc(C(=O)NCC(O)(c2cc(C(C)(C)NCCO)cc(-c3ccc(F)c(Cl)c3)n2)C(F)(F)F)ccc1OC1CC1 (stereo not drawn) [Compound 502] | < 1000 nM | 10000 to 100000 nM | < 1000 nM | < 1000 nM | – | –
CCOc1ccc(C(=O)NCC(C)(O)c2ccc(OC)c(-c3c[nH]c4c(F)cccc34)n2)cc1OC (racemic) [Compound 116] | < 1000 nM | 10000 to 100000 nM | < 1000 nM | < 1000 nM | – | –
COc1cc(C(=O)NCC(O)(CF)c2ccc(OC)c(-c3ccc(F)c(Cl)c3)n2)ccc1OCCO (stereo not drawn) [Compound 424] | < 1000 nM | 10000 to 100000 nM | < 1000 nM | < 1000 nM | – | –
COc1cc(C(=O)NCC(O)(c2cc(C(C)(C)N)cc(-c3ccc(F)cc3)n2)C(F)(F)F)ccc1OC[C@@H](C)O (stereo partly drawn) [Compound 586] | < 1000 nM | 10000 to 100000 nM | < 1000 nM | < 1000 nM | – | –
COc1cc(C(=O)NC[C@](O)(c2cc(C(C)(C)N)cc(-c3ccc(F)c(Cl)c3)n2)C(F)(F)F)ccc1OC[C@@H](C)O [Compound 552] | < 1000 nM | 10000 to 100000 nM | < 1000 nM | < 1000 nM | – | –
COc1cc(C(=O)NCC(O)(c2cc(C(C)(C)N)cc(-c3ccc(C#N)cc3)n2)C(F)(F)F)ccc1OC1CC1 (stereo not drawn) [Compound 527] | < 1000 nM | – | < 1000 nM | < 1000 nM | – | 10000 to 100000 nM
COc1cc(C(=O)NCC(O)(c2cc3c(c(-c4ccc(F)c(Cl)c4)n2)OCCC3(C)C)C(F)(F)F)ccc1OCC(N)=O (stereo not drawn) [Compound 347] | < 1000 nM | 10000 to 100000 nM | – | < 1000 nM | – | –
COc1cc(C(=O)NCC(O)(c2cc3c(c(-c4ccc(F)c(Cl)c4)n2)OCCC3(C)C)C(F)(F)F)ccc1OC1CC1 (stereo not drawn) [Compound 345] | < 1000 nM | > 100000 nM | – | < 1000 nM | – | –
COc1cc(C(=O)NCC(O)(c2ccc(OC)c(-c3ccc(F)c(Cl)c3)n2)C(F)(F)F)ccc1OC[C@@H](C)O (stereo partly drawn) [Compound 336] | < 1000 nM | 10000 to 100000 nM | – | < 1000 nM | – | –
COc1cc(C(=O)NCC(O)(c2ccc(OC)c(-c3ccc(F)c(Cl)c3)n2)C(F)(F)F)ccc1OC(C)C(N)=O (stereo not drawn) [Compound 338] | < 1000 nM | 10000 to 100000 nM | – | < 1000 nM | – | –
COc1ccc(C(O)(CNC(=O)c2cc(OC)c3ncccc3c2)C(F)(F)F)nc1-c1ccc(F)c(Cl)c1 (stereo not drawn) [Compound 339] | < 1000 nM | 10000 to 100000 nM | – | < 1000 nM | – | –
COc1cc(C(=O)NCC(O)(c2cc3c(c(-c4ccc(C#N)cc4)n2)OCC3(C)N)C(F)(F)F)ccc1OC1CC1 (stereo not drawn) [Compound 542] | – | 10000 to 100000 nM | – | < 1000 nM | < 1000 nM | –
COc1cc(C(=O)NCC(O)(c2cc3c(c(-c4ccc(F)c(Cl)c4)n2)OCCC3(C)C)C(F)(F)F)ccc1OC[C@@H](C)O (stereo partly drawn) [Compound 346] | < 1000 nM | 10000 to 100000 nM | – | < 1000 nM | – | –
COc1cc(C(=O)NCC(O)(c2cc3c(c(-c4ccc(F)c(Cl)c4)n2)OCCC3(C)C)C(F)(F)F)ccc1OC1CCNC1=O (stereo not drawn) [Compound 348] | < 1000 nM | 10000 to 100000 nM | – | < 1000 nM | – | –
